# Test results from US11666532B2, “Tranexamic acid oral solution” (Hyloris Developments SA, priority 2018, dated 2023).
# Read-outs that look alike come from different tables or passages of the source.
# Columns and labels:
# [1] = Binary mixtures study: discoloration at 60° C., visual inspection; assay type: physicochemical; conditions: binary mixture with TXA in phosphoric acid solution pH 5.5, glass vials, 60° C. oven, 2 weeks
# Method: To determine which components of the formulation were responsible for the discoloration, binary mixtures of TXA and each component were dissolved in phosphoric acid solution at pH 5.5 in amounts representative to their concentration in Formulation A of Table 1A.
# Samples of each mixture in Table 1B were placed in glass vials and stored in 60° C. oven for 2 weeks and visually inspected periodically for discoloration. The samples from Table 1B containing TXA and Sorbitol (sample 5), or TXA and Glycerin (sample 3), or TXA and Poloxamer 407 (sample 6), or TXA and spearmint flavor F-4785, turned yellow. Thus sorbitol, glycerin, poloxamer 407 and spearmint flavor were considered to be the ingredients responsible for the discoloration of formula A.
# Binary mixtures of TXA and alternative surfactants were prepared and samples were stored in a 60° C. oven to test for discoloration as described in Table 2.
# Binary mixtures of Na CMC and TXA were prepared and stored at 60° C. for 2 weeks to test for discoloration as in Table 3.
# [2] = test system: bleeding during or after dental procedures; conditions: local tranexamic acid as a supplement to systemic therapy; cited from earlier work
# plasminogen = plasminogen (Homo sapiens, UniProt P00747); conditions: cited from earlier work
# [3] = cited from earlier work
# [4] = test system: whole blood or citrated blood from normal subjects; conditions: cited from earlier work
# plasma protein = conditions: cited from earlier work
# [5] = cited from earlier work; remark: listed apart in the source
# serum albumin = serum albumin (Homo sapiens, UniProt P02768); conditions: cited from earlier work
# [6] = after oral and intravenous administration
# [7] = four doses of 10-20 mg per kg body weight 36-48 hours before surgery
# [8] = three hours after a single oral dose of 25 mg per kg body weight
# plasminogen, sequence (P00747 20-810 limits assumed): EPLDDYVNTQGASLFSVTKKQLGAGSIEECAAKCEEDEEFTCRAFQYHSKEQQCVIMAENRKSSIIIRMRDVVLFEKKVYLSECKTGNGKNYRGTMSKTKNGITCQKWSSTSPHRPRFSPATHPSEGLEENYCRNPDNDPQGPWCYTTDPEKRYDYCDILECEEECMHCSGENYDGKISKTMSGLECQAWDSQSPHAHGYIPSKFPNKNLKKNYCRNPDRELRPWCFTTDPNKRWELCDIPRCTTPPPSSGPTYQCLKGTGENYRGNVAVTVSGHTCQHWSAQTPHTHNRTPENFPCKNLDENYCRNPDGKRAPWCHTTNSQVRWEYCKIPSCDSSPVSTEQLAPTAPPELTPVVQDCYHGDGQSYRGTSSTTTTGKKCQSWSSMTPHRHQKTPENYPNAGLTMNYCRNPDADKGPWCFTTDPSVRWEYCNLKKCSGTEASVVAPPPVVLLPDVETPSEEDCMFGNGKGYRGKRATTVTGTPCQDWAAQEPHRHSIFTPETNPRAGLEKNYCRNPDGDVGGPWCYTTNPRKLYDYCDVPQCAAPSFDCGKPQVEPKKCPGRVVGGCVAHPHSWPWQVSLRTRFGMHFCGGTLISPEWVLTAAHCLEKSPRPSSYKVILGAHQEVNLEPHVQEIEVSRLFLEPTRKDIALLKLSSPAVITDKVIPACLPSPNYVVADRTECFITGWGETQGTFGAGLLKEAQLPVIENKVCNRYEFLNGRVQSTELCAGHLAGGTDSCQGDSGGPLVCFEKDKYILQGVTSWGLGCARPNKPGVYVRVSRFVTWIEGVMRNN
# serum albumin, sequence (P02768 25-609): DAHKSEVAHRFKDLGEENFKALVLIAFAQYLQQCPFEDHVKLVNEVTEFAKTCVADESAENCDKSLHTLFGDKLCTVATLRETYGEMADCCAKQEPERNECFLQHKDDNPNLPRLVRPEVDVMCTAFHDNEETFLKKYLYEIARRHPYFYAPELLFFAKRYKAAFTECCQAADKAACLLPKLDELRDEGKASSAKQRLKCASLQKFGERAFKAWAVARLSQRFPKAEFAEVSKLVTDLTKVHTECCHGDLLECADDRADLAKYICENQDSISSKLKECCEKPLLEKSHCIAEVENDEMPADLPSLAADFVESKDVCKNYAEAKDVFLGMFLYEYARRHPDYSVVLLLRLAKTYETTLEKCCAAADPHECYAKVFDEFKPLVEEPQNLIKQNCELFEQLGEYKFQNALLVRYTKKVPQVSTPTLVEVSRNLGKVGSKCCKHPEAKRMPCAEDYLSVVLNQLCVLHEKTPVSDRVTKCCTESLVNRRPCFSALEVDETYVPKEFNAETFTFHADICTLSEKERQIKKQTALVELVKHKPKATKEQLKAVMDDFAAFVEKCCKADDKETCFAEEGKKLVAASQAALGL
compound,measurement,setting,value
polyoxyethylene sorbitan monolaurate [Tween 20],Discoloration,[1],didn't cause discoloration
"alpha-D-Glucopyranoside, beta-D-fructofuranosyl, monooctadecanoate [Sucrose Stearate]",Discoloration,[1],did not dissolve into solution
"beta-D-Fructofuranosyl-alpha-D-glucopyranoside, monododecanoate [Sucrose Laurate]",Discoloration,[1],didn't cause discoloration
polyoxyethylene (20)sorbitan monooleate [Tween 80],Discoloration,[1],didn't cause discoloration
"NC[C@H]1CC[C@H](C(=O)O)CC1 [tranexamic acid, trans-4-(aminomethyl) cyclohexanecarboxylic acid]",incidence of bleeding during or after dental procedures (postoperative bleeding),[2],significantly reduces
same,binding to strong and weak sites in the plasminogen molecule relative to epsilon aminocaproic acid (EACA),plasminogen,considerably more strongly
same,excretion,[3]; 24 hours after oral administration of 10-15 mg per kg body weight,39%
same,concentration in fetal serum,[3]; after intravenous injection of 10 mg per kg body weight,about 30 μg per mL
same,acetylated product excreted,[3]; after oral administration,~0.5%
same,deaminated dicarboxylic acid excreted,[3]; after oral administration,~2%
same,parent compound excreted,[3]; after oral administration,approximately 50%
same,fibrinolytic activity of the semen,[3]; [6],inhibits
same,motility of the spermatozoa,[3]; [6],without affecting
same,passage into the semen,[3]; [6],passes into the semen
same,concentration in breast milk relative to corresponding serum levels,[3]; during lactation,1/100
same,plasma concentration,[3]; five hours after intravenous 10 mg per kg body weight,5 μg per mL
same,time an antifibrinolytically active concentration (10 μg/mL) remained in the serum,[3]; [7],7 to 8 h
same,time an antifibrinolytically active concentration (10 μg/mL) remained in the tissues investigated,[3]; [7],up to 17 hours
same,biological half-life in the joint fluid,[3]; in vivo,about 3 hours
same,concentration in the joint fluid compared with the serum,[3]; in vivo,same concentration
same,dose excreted in the urine as unchanged drug,[3]; in vivo,more than 95%
same,fraction of the drug metabolized,[3]; in vivo,less than 5%
same,placental transfer,[3]; in vivo,crosses the placenta
same,half-life for the terminal elimination phase,[3]; intravenous dose of 1 g,about 2 hours
same,plasma concentration,[3]; one hour after intravenous 10 mg per kg body weight,18.3 μg per mL
same,excretion,[3]; one hour after intravenous administration of 10 mg per kg body weight,about 30%
same,excretion,[3]; one hour after oral administration of 10-15 mg per kg body weight,1%
same,effect of food intake on bioavailability,[3]; oral,not affected
same,ability to cross the blood-brain barrier,[3]; patients with ruptured intracranial aneurysms,has been demonstrated
same,aqueous humor level,[3]; [8],1.6 mg per L
same,peak serum level,[3]; [8],15.4 mg per L
same,plasma concentration,[3]; three hours after intravenous 10 mg per kg body weight,9.6 μg per mL
same,excretion,[3]; three hours after intravenous administration of 10 mg per kg body weight,~55%
same,excretion,[3]; three hours after oral administration of 10-15 mg per kg body weight,7%
same,thrombin time,[4]; concentrations of 1 mg to 10 mg per mL blood,prolongs
same,"influence on the platelet count, the coagulation time, or various coagulation factors","[4]; concentrations up to 10 mg per mL blood, whole blood or citrated blood from normal subjects",no influence
same,plasma protein binding,plasma protein; at therapeutic plasma levels of 5-10 mg/L,negligible
same,plasma protein binding,plasma protein; at therapeutic plasma levels,about 3%
same,"concentrations in saliva, initially",[5]; after mouth rinse,above 200 μg per mL
same,plasma concentrations,[5]; after mouth rinse,below 2 μg per mL
same,time saliva concentrations remained above therapeutic levels,[5]; after mouth rinse,more than 2 hours
same,saliva levels,"[5]; after oral administration, any time point",undetectable
same,maximum mean plasma concentration,[5]; after oral administration,~7 μg per mL
same,time to maximum mean plasma concentration,[5]; after oral administration,120 min
same,binding to serum albumin,serum albumin,does not bind
